Measured values taken from patent US8143393B2, “Substituted 4-amino-pyrrolotriazine derivatives useful for treating hyper-proliferative disorders and diseases associated with angiogenesis” (Bayer HealthCare LLC, priority 2005, dated 2012).

What was measured:
H460 = test: Tumor cell proliferation (H460 proliferation assay); format: cell-based; conditions: Homo sapiens, NCI-H460, 72 h, Alamar Blue
Method: (§1) Human tumor cells (e.g., HCT116 or MDA-MB-231 cells), were seeded in a Costar 96-well plate at 3.0×10^3 cells/well and grown in 150 μl of RPMI complete media (Invitrogen Corporation, Grand Island, N.Y.) containing 10% fetal bovine serum (Hyclone, Logan, Utah) at 37° C. for 16 h in an incubator with 5% CO2. To each well, 50 μl of additional growth media containing 40 μM to 18 nM concentrations of compound with 0.4% DMSO was added. Cells were grown for another 72 h at 37° C. with 5% CO2. 20 μl of Alamar Blue (Trek Diagnostic Systems, Inc., Cleveland, Ohio) reagent was added to each well and incubated for 3 h at 37° C. Plates were read in a SpectraMax Gemini (Molecular Devices, CA) with 544 nm excitation and 590 nm emission wavelength. IC50 values were determined by linear regression analysis of log drug concentration versus percent inhibition.

FGFR-1 = target: T1, FGFR-1 (Homo sapiens, UniProt P11362); test: FGFR-1 TR-FRET biochemical assay; conditions: 0.6 uM ATP, 5 nM FGFR1-GST; bounds given in nM
T1 construct: GST; made in house
How it was run: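 FGFR1-GST (5 nM) was incubated with poly GT-biotin (25 nM) and 0.6 uM ATP in HEPES pH 7.5/MgCl2 with 1% DMSO for 1 h at room temperature. Phosphorylation was read by LANCE TR-FRET (Eu-anti-pTyr/SA-APC, 665/615 ratio). Percent inhibition was background-corrected against no-ATP wells, with final compound concentrations of 10 μM–0.128 nM.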

HCT116 cells = test: Tumor cell proliferation (HCT116 proliferation assay); format: cell-based; conditions: Homo sapiens, HCT-116, 72 h, Alamar Blue
Method: as §1

MDA-MB-231 cells = test: Tumor cell proliferation (MDA-MB-231 proliferation assay); format: cell-based; conditions: Homo sapiens, MDA-MB-231, 72 h, Alamar Blue
Method: as §1

[1] = tested on: histone 3 phosphorylation in colon carcinoma (HCT116); test: p-Histone3 assay; format: cell-based; conditions: Homo sapiens, HCT-116, 24 h, HCT116, 24 h treatment
Method: Compounds were assayed for the inhibition of histone 3 phosphorylation in colon carcinoma (HCT116). Briefly, 20,000 cells/well were seeded in a 96-well black-walled, poly-d-lysine plates in RPMI+10% FBS and incubated at 37° C. in 5% CO2 overnight. The following day, the cells were treated with compounds for 24 hours at 37° C. Following compound treatment; plates were centrifuged at 1000 rpm for 2 minutes and washed twice with 100 μl of cold sterile TBS. Cells were then fixed with cold 3.7% formaldehyde in TBS (4° C. for 1 hour) and then permeabolized with 0.1% Triton-X-100 in TBS (room temperature for 30 minutes). Plates were then washed with of 0.25% BSA-TBS and blocked with BSA solution for 1 hour at room temperature while shaking. The supernatant was removed and replaced with diluted primary antibody (anti-phospho-histone 3, serine 10, Cell Signaling) at 1:250 in 0.25% BSA-TBS and incubated overnight at 4° C. The plates were washed and treated with diluted secondary antibody (anti-rabbit Eu-labeled) at 1:10000 in 0.25% BSA-TBS (room temperature for 1 hour). The antibody solution was removed from each well and washed eight times. The wash buffer was replaced with 50 μl pre-warmed enhancement solution and mixed on the orbital shaker for 10 minutes. Fluorescence was detected with a Victor V Fluorescence Detector. The data are expressed as percent inhibition: % inhibition=100−((Signal with inhibitor−background)/(Signal without inhibitor−background))−100.

[2] = lower bound of the bin 'greater than 500 nM but less than 4 μM'
[3] = upper bound of the bin 'greater than 500 nM but less than 4 μM'
[4] = lower bound of the bin 'greater than 500 nM but less than 3 μM'
[5] = upper bound of the bin 'greater than 500 nM but less than 3 μM'

T1 sequence (P11362 22-822): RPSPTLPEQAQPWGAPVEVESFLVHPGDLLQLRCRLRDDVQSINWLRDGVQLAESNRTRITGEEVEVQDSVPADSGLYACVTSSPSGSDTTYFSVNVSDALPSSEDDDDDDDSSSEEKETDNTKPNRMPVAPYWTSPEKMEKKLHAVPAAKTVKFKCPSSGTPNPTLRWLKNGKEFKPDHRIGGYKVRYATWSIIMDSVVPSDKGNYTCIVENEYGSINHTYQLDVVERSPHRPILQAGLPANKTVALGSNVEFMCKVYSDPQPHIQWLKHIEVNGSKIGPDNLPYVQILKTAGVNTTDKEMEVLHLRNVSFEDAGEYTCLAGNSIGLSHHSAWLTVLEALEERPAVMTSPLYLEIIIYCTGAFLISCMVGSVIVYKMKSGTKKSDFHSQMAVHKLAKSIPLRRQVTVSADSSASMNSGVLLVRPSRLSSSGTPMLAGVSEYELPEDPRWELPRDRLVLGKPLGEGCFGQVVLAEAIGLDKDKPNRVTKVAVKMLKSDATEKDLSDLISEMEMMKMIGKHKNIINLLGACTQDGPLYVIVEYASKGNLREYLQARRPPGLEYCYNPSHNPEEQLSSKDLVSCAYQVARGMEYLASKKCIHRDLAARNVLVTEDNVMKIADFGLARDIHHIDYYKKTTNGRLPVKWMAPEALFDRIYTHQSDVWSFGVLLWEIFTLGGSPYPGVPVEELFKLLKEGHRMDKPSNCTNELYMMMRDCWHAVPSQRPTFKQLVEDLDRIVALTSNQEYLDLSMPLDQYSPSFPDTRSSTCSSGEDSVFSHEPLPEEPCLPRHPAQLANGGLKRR

IC50 (H460; [2]) [nM]	IC50 (H460; [3]) [nM]	IC50 (FGFR-1) [nM]	IC50 (HCT116 cells; [2]) [nM]	IC50 (HCT116 cells; [3]) [nM]	IC50 (MDA-MB-231 cells; [4]) [nM]	IC50 (MDA-MB-231 cells; [5]) [nM]	IC50 ([1]; bounds given in μM) [µM]	IC50 ([1]; lower bound of the bin 'greater than 500 nM but less than 5 μM') [µM]	SMILES
> 500	< 4000	< 10							Nc1ncnn2c(CN3CCOCC3)cc(-c3ccc(NC(=O)Nc4cc(C(F)(F)F)ccc4F)c(F)c3)c12 [Example 1]
> 500	< 4000	< 10	> 500	< 4000	> 500	< 3000			Nc1ncnn2c(CN3CCOCC3)cc(-c3ccc(NC(=O)Nc4cc(C(F)(F)F)ccn4)cc3)c12 [Example 3, N-{4-[4-amino-7-(morpholin-4-ylmethyl)pyrrolo[2,1-f][1,2,4]triazin-5-yl]phenyl}-N′-[4-(trifluoromethyl)pyridin-2-yl]urea]
		< 10	> 500	< 4000	> 500	< 3000	< 5	> 0.5	Nc1ncnn2c(CN3CCOCC3)cc(-c3ccc(NC(=O)Nc4cc(C(F)(F)F)ccc4F)cc3)c12 [Example 4, N-{4-[4-amino-7-(morpholin-4-ylmethyl)-pyrrolo[2,1-f][1,2,4]triazin-5-yl]phenyl}-N′-[2-fluoro-5-(trifluoromethyl)phenyl]urea]
> 500	< 4000		> 500	< 4000	> 500	< 3000			Nc1ncnn2c(CN3CCOCC3)cc(-c3ccc(NC(=O)Nc4cccc(C(F)(F)F)c4)cc3)c12 [Example 5, N-{4-[4-amino-7-(morpholin-4-ylmethyl)-pyrrolo[2,1-f][1,2,4]triazin-5-yl]phenyl}-N′-[3-(trifluoromethyl)phenyl]urea]
> 500	< 4000	< 10	> 500	< 4000	> 500	< 3000			Nc1ncnn2c(CN3CCOCC3)cc(-c3ccc(NC(=O)Nc4ccc(F)c(C(F)(F)F)c4)cc3)c12 [Example 6, N-{4-[4-amino-7-(morpholin-4-ylmethyl)-pyrrolo[2,1-f][1,2,4]triazin-5-yl]phenyl}-N′-[4-fluoro-3-(trifluoromethyl)phenyl]urea]
> 500	< 4000	< 10							Nc1ncnn2c(CN3CCOCC3)cc(-c3ccc(NC(=O)Nc4cc(C(F)(F)F)ccn4)c(F)c3)c12 [Example 8, N-{4-[4-amino-7-(morpholin-4-ylmethyl)pyrrolo[2,1-f][1,2,4]triazin-5-yl]-2-fluorophenyl}-N′-[4-(trifluoromethyl)pyridin-2-yl]urea]
